Test results reported in patent US20210113501A1, “METHOD OF ADMINISTERING BETA-HYDROXY-BETA-METHYLBUTYRATE (HMB)” (Metabolic Technologies, Inc., priority 2009, published 2021).

What was measured:
[1] = system: protein degradation in muscle; assay: Urinary 3-methylhistidine to creatinine ratio after an acute exercise bout; format: in vivo, human
Method: Subjects: We conducted a study at the Iowa State University Health and Human Performance Laboratory; this study was approved by the Iowa State University Institutional Review Board, and was registered at ClinicalTrials.gov (NCT01150526). We recruited 12 men and 13 women between the ages of 20 and 36 from the Iowa State University community and surrounding area.
Treatments: The experimental design is depicted in FIG. 8.
Five treatments were administered as follows: Treatment 1: Placebo. This group received a placebo capsule and a placebo syringe dosage at each dosage administration. Treatment 2: CaHMB pre-exercise. This group received a CaHMB capsule and a placebo syringe dosage 30 min prior to the acute exercise bout. The remaining additional dosages during the study consisted of one placebo capsule and one placebo syringe dosage. Treatment 3: HMB-acid gel pre-exercise. This group received a placebo capsule and a syringe dosage of HMB-acid gel 30 min prior to the acute exercise bout. The remaining additional dosages during the study consisted of one placebo capsule and one placebo syringe dosage. Treatment 4: CaHMB pre- and post-exercise. This group received a CaHMB capsule and a placebo syringe dosage at all administration times during the study. Treatment 5: HMB-acid gel pre- and post-exercise. This group received a syringe dosage of HMB-acid gel and one placebo capsule at all administration times during the study.
To blind the treatments to both the researchers and subjects, each subject took a capsule and syringe dosage of supplement at each administration. The capsules contained either one gram of calcium lactate (Placebo) or one gram of calcium β-hydroxy-β-methylbutryate (CaHMB). The syringe dosages were formulated to be similar in taste and appearance and contained either 0.8 g of corn syrup (Placebo) or 0.8 g of β-hydroxy-β-methylbutryate free acid, the same amount of HMB as in the capsule dosage. The 3 daily doses provided the same total HMB dosage (2.4 g as calcium HMB in the capsules or 2.4 g as HMB free acid in the syringes).
Eccentric Exercise Bout: Subjects refrained from vigorous exercise for three days before reporting to the laboratory. All subjects were studied after an overnight fast. […] Subjects then consumed their assigned supplement and 30 minutes later the eccentric exercise session was performed. The exercise consisted of 50 maximal effort contractions of knee extensors while attempting to resist the Biodex lever arm as it moves the knee joint from full extension to 90 degrees flexion; this is similar to letting a heavy weight down slowly while in a seated position. Each contraction lasted about 2 seconds and 12 seconds were allowed between contractions. This protocol was performed on the right leg followed by the left leg. The subjects received 2 more daily dosages of treatment (placebo or HMB) with instructions to take the dosages at lunch and dinner. For the next 4 days the subjects returned to the laboratory fasted each morning, had blood taken and urine collected and then consumed the morning dosage of their supplement. The subjects were again given the 2 remaining daily supplement dosages with instructions to take them at lunch and dinner.
Serum and Urine Samples: A fasting blood sample was taken from a superficial forearm vein each morning when the subjects reported to the laboratory for testing. Additionally a clean catch urine sample was collected at this time. Serum CPK was analyzed by a commercial laboratory (Quest Diagnostics, Madison N.J.). Urine 3-Methylhistidine (3MH) was analyzed by a previously published GC/MS method (9). Urinary creatinine was analyzed by colorimetric assay (Cayman Chemical Company, Ann Arbor, Mich.). The urinary 3MH data was normalized to urinary creatinine and expressed as 3MH:creatinine ratio, μmol:mg.
Statistics: Data were analyzed using the mixed model procedure in Statistical Analysis System for Windows (Release 9.1.3, SAS Institute, Cary, N.C.). […]

[2] = cited from earlier work

SMILES: CC(C)(O)CC(=O)[O-].CC(C)(O)CC(=O)[O-].[Ca+2] [CaHMB, calcium β-hydroxy-β-methylbutryate, reference compound]
- 3MH:Cr ([1]; Baseline, dosed pre- and post exercise (Treatments 4, 5)): 0.205 ± 0.025 µmol/mg
- 3MH:Cr ([1]; Baseline, dosed pre-exercise only (Treatments 2, 3)): 0.164 ± 0.037 µmol/mg
- 3MH:Cr ([1]; at 24 h, dosed pre- and post exercise (Treatments 4, 5)): 0.203 ± 0.039 µmol/mg
- 3MH:Cr ([1]; at 24 h, dosed pre-exercise only (Treatments 2, 3)): 0.190 ± 0.027 µmol/mg
- 3MH:Cr ([1]; at 48 h, dosed pre- and post exercise (Treatments 4, 5)): 0.220 ± 0.027 µmol/mg
- 3MH:Cr ([1]; at 48 h, dosed pre-exercise only (Treatments 2, 3)): 0.240 ± 0.052 µmol/mg
- 3MH:Cr ([1]; at 72 h, dosed pre- and post exercise (Treatments 4, 5)): 0.231 ± 0.037 µmol/mg
- 3MH:Cr ([1]; at 72 h, dosed pre-exercise only (Treatments 2, 3)): 0.204 ± 0.058 µmol/mg
- 3MH:Cr ([1]; at 96 h, dosed pre- and post exercise (Treatments 4, 5)): 0.269 ± 0.038 µmol/mg
- 3MH:Cr ([1]; at 96 h, dosed pre-exercise only (Treatments 2, 3)): 0.187 ± 0.029 µmol/mg
- time of peak plasma HMB levels after ingestion ([2]; depending upon the dosage): 60 to 120 min
- plasma peak levels, 3 grams versus 1 gram dose ([2]; oral, Vukovich et al): 3 times
- time to peak plasma levels ([2]; typical 1 gram dosage): 2 h
